Assay results taken from the NIST ThermoML archive (doi:10.1021/je200721d).

Experiment: xn = mol fraction of the nth substance listed
Conditions: Liquid, Vibrating tube method

CCCCCCCCCC [decane] + CCCCCC
Conditions | mass density [kg/m3]
332.93 K, 7000 kPa, x2 = 0.8991 | 643.52
332.93 K, 8000 kPa, x2 = 0.8991 | 644.74
332.93 K, 9000 kPa, x2 = 0.8991 | 645.94
332.93 K, 10000 kPa, x2 = 0.8991 | 647.14
332.93 K, 11000 kPa, x2 = 0.8991 | 648.32
332.93 K, 12000 kPa, x2 = 0.8991 | 649.47
332.93 K, 13000 kPa, x2 = 0.8991 | 650.61
332.93 K, 14000 kPa, x2 = 0.8991 | 651.73
332.93 K, 15000 kPa, x2 = 0.8991 | 652.84
332.93 K, 16000 kPa, x2 = 0.8991 | 653.92
332.93 K, 17000 kPa, x2 = 0.8991 | 654.97
332.93 K, 18000 kPa, x2 = 0.8991 | 655.99
332.93 K, 19000 kPa, x2 = 0.8991 | 657.01
332.93 K, 20000 kPa, x2 = 0.8991 | 657.98
332.93 K, 21000 kPa, x2 = 0.8991 | 658.93
332.93 K, 22000 kPa, x2 = 0.8991 | 659.86
332.93 K, 23000 kPa, x2 = 0.8991 | 660.76
332.93 K, 24000 kPa, x2 = 0.8991 | 661.64
332.93 K, 25000 kPa, x2 = 0.8991 | 662.49
333.08 K, 1000 kPa, x2 = 0.2185 | 689.16
333.08 K, 2000 kPa, x2 = 0.2185 | 690.17
333.08 K, 3000 kPa, x2 = 0.2185 | 691.16
333.08 K, 4000 kPa, x2 = 0.2185 | 692.16
333.08 K, 5000 kPa, x2 = 0.2185 | 693.16
333.08 K, 6000 kPa, x2 = 0.2185 | 694.13
333.08 K, 7000 kPa, x2 = 0.2185 | 695.1
333.08 K, 8000 kPa, x2 = 0.2185 | 696.06
333.08 K, 9000 kPa, x2 = 0.2185 | 697.02
333.08 K, 10000 kPa, x2 = 0.2185 | 697.94
333.08 K, 10990 kPa, x2 = 0.2185 | 698.86
333.08 K, 12000 kPa, x2 = 0.2185 | 699.77
333.08 K, 13000 kPa, x2 = 0.2185 | 700.66
333.08 K, 14000 kPa, x2 = 0.2185 | 701.54
333.08 K, 15000 kPa, x2 = 0.2185 | 702.39
333.08 K, 16000 kPa, x2 = 0.2185 | 703.25
333.08 K, 17000 kPa, x2 = 0.2185 | 704.09
333.08 K, 18000 kPa, x2 = 0.2185 | 704.93
333.08 K, 19000 kPa, x2 = 0.2185 | 705.76
333.08 K, 20000 kPa, x2 = 0.2185 | 706.56
333.08 K, 21000 kPa, x2 = 0.2185 | 707.37
333.08 K, 22000 kPa, x2 = 0.2185 | 708.17
333.08 K, 23000 kPa, x2 = 0.2185 | 708.95
333.08 K, 24000 kPa, x2 = 0.2185 | 709.72
333.08 K, 25000 kPa, x2 = 0.2185 | 710.48
333.1 K, 1000 kPa, x2 = 0.7524 | 650.65
333.1 K, 2000 kPa, x2 = 0.7524 | 651.99
333.1 K, 3000 kPa, x2 = 0.7524 | 653.29
333.1 K, 4000 kPa, x2 = 0.7524 | 654.52
333.1 K, 5000 kPa, x2 = 0.7524 | 655.72
333.1 K, 6000 kPa, x2 = 0.7524 | 656.92
333.1 K, 7000 kPa, x2 = 0.7524 | 658.07
333.1 K, 8000 kPa, x2 = 0.7524 | 659.21
333.1 K, 9000 kPa, x2 = 0.7524 | 660.35
333.1 K, 10000 kPa, x2 = 0.7524 | 661.46
333.1 K, 10990 kPa, x2 = 0.7524 | 662.52
333.1 K, 12000 kPa, x2 = 0.7524 | 663.6
333.1 K, 13000 kPa, x2 = 0.7524 | 664.65
333.1 K, 14000 kPa, x2 = 0.7524 | 665.67
333.1 K, 15000 kPa, x2 = 0.7524 | 666.7
333.1 K, 16000 kPa, x2 = 0.7524 | 667.68
333.1 K, 17000 kPa, x2 = 0.7524 | 668.66
333.1 K, 18000 kPa, x2 = 0.7524 | 669.62
333.1 K, 19000 kPa, x2 = 0.7524 | 670.59
333.1 K, 20000 kPa, x2 = 0.7524 | 671.52
333.1 K, 21000 kPa, x2 = 0.7524 | 672.45
333.1 K, 22000 kPa, x2 = 0.7524 | 673.35
333.1 K, 23000 kPa, x2 = 0.7524 | 674.23
333.1 K, 24000 kPa, x2 = 0.7524 | 675.08
333.1 K, 25000 kPa, x2 = 0.7524 | 675.91
333.12 K, 1000 kPa, x2 = 0.0456 | 697.88
333.12 K, 2000 kPa, x2 = 0.0456 | 698.9
333.12 K, 3000 kPa, x2 = 0.0456 | 699.91
333.12 K, 4000 kPa, x2 = 0.0456 | 700.9
333.12 K, 5000 kPa, x2 = 0.0456 | 701.88
333.12 K, 6000 kPa, x2 = 0.0456 | 702.84
333.12 K, 7000 kPa, x2 = 0.0456 | 703.78
333.12 K, 8000 kPa, x2 = 0.0456 | 704.71
333.12 K, 9000 kPa, x2 = 0.0456 | 705.63
333.12 K, 10000 kPa, x2 = 0.0456 | 706.54
333.12 K, 10990 kPa, x2 = 0.0456 | 707.42
333.12 K, 12000 kPa, x2 = 0.0456 | 708.3
333.12 K, 13000 kPa, x2 = 0.0456 | 709.16
333.12 K, 14000 kPa, x2 = 0.0456 | 710.01
333.12 K, 15000 kPa, x2 = 0.0456 | 710.86
333.12 K, 16000 kPa, x2 = 0.0456 | 711.67
333.12 K, 17000 kPa, x2 = 0.0456 | 712.48
333.12 K, 18000 kPa, x2 = 0.0456 | 713.29
333.12 K, 19000 kPa, x2 = 0.0456 | 714.08
333.12 K, 20000 kPa, x2 = 0.0456 | 714.87
333.12 K, 21000 kPa, x2 = 0.0456 | 715.64
333.12 K, 22000 kPa, x2 = 0.0456 | 716.39
333.12 K, 23000 kPa, x2 = 0.0456 | 717.15
333.12 K, 24000 kPa, x2 = 0.0456 | 717.89
333.12 K, 25000 kPa, x2 = 0.0456 | 718.63
